Reference: PMC7170309, “Imidazopyridine-fused [1,3]diazepinones: modulations of positions 2 to 4 and their impacts on the anti-melanoma activity” (Journal of Enzyme Inhibition and Medicinal Chemistry, 2020)

Legend:
Assay type in all cases: cell-based, human
[1] = test system: A375 melanoma cells; assay: Neutral red uptake (NRU) viability assay, A375; details: Homo sapiens, A-375, 72 h, mean ± SD of three experiments
Experimental: Melanoma human cancer cell line (A375 and MDA-MB-435) were obtained from ATCC. The NIH-3T3 cell line was generously gifted by the ANSM (French National Agency for Medicines and Health Products Safety, Vendargues, France). Cells were cultured in Dulbecco’s Modified Eagle Medium (DMEM, Sigma Aldrich) supplemented with 10% heat-inactivated foetal calf serum (FCS, Gibco), 2 mM glutamax (Gibco), 100 IU/mL penicillin G sodium (Sigma Aldrich), 100 lU/mL streptomycin sulphate (Sigma Aldrich). The cells were allowed to grow at 37 °C in a fully humidified atmosphere containing 5% CO2.
A viability assay was used to evaluate the cytotoxic activity on A375 and MDA-MB-435 melanoma cells as previously described. According to OCDE/ICCVAM guidance n°129, NRU assay was also used to evaluate the toxicity on the non-cancerous NIH-3T3 cells. Cells were seeded at a final concentration of 2000 cells/well (A375), 3000 cells/well (NIH-3T3) or 7500 cells/well (MDA-MB-435) in 96-well microtiter plates for 24 h. Then, cells were exposed to two negative controls (1% DMSO in culture medium (vehicle) and culture medium alone), or to different compounds freshly dissolved in DMSO, in a range of concentration from 0.01 to 40 µM (six wells per concentration). After 72 h of incubation, cells were stained with new medium containing 50 µg/mL of neutral red (3-amino-7-dimethylamino-2-methylphenazine hydrochloride, Sigma Aldrich) at 37 °C for 2 h. The neutral red medium solution was then removed and the wells were washed with PBS. Finally, 100 µL of solution containing ethanol, acetic acid and water (50/1/49 v/v/v respectively) were added into the wells and the absorbance was measured at 540 nm using the microplate reader 352 Multiscan MS (Labsystems). Cell survival rates were normalised to the absorbance values of untreated control cells. IC50 was obtained using a logistic regression model on Graphpad Prism 5.0 software. Results are given as the mean ± standard deviation (SD) of three independent experiments. Statistical analysis was performed using the Student’s t-test.

[2] = test system: CCRF-CEM; assay: NCI-60 SRB assay, CCRF-CEM (Leukemia); details: 10 µM, 48 h
Experimental: (§1) Primary anticancer assay was performed on a panel of 60 human cancer cell lines derived from nine neoplastic diseases, in accordance with the protocol of the Drug Evaluation Branch, National Cancer Institute, Bethesda, Maryland, USA[22]. Cells were incubated with tested compounds at 10 µM for 48 h. The growth percentage was evaluated spectrophotometrically using a protein binding dye, SRB. Results for each tested compound were reported as the percent of growth of treated cells when compared to untreated control cells.
(§2) To better compare the activity profile of these two series of compounds, compounds 5 and 8 were selected and then evaluated towards a panel of sixty cancer cell lines corresponding to nine different cancer types, i.e. leukaemia, melanoma, as well as lung, colon, central nervous system, ovarian, renal, prostate and breast cancers (NCI evaluation). Indeed, it is now well established that the growth inhibitory patterns of anticancer drugs against the NCI-60 cell line panel correlated well with their modes of action. For example, compounds that bind to tubulin have similar growth inhibition patterns regardless of which site on tubulin they bind[30]. […] Compounds were tested using the sulforhodamine B (SRB) assay that provides a direct cell density index. The amount of dye incorporated by the cells increases with the increase of the total protein biomass. Cells were incubated for 48 h with compounds at 10 µM concentration, then cell growth was evaluated spectrophotometrically and presented as the percent of untreated control cells. Values of the most sensitive cell lines were compared to those obtained with JMV5038 (Figure 4, for all data see SI).

[3] = test system: HCC-2998; assay: NCI-60 SRB assay, HCC-2998 (Colon Cancer); details: 10 µM, 48 h; for G%: growth vs untreated control;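 for Mean G% - G%: mean growth across the NCI-60 panel minus this line's growth with positive meaning more sensitive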
Experimental: as §1, §2

[4] = test system: HCT-116; assay: NCI-60 SRB assay, HCT-116 (Colon Cancer); details: 10 µM, 48 h; for G%: growth vs untreated control
Experimental: as §1, §2

[5] = test system: HCT-15; assay: NCI-60 SRB assay, HCT-15 (Colon Cancer); details: 10 µM, 48 h; for G%: growth vs untreated control
Experimental: as §1, §2

[6] = test system: M14; assay: NCI-60 SRB assay, M14 (Melanoma); details: 10 µM, 48 h; for G%: growth vs untreated control
Experimental: as §1, §2

[7] = test system: MDA-MB-435; assay: NCI-60 SRB assay, MDA-MB-435 (Melanoma); details: 48 h; for Mean G% - G% / G%: MDA-MB-435, 10 µM, SRB; for G%: growth vs untreated control;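 for Mean G% - G%: mean growth across the NCI-60 panel minus this line's growth with positive meaning more sensitive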
Experimental: as §1, §2

[8] = test system: SK-MEL-5; assay: NCI-60 SRB assay, SK-MEL-5 (Melanoma); details: 10 µM, 48 h; for G%: growth vs untreated control
Experimental: as §1, §2

[9] = test system: UACC-257; assay: NCI-60 SRB assay, UACC-257 (Melanoma); details: 10 µM, 48 h; for G%: growth vs untreated control
Experimental: as §1, §2

[10] = test system: OVCAR-4; assay: NCI-60 SRB assay, OVCAR-4 (Ovarian Cancer); details: 10 µM, 48 h; for G%: growth vs untreated control;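 for Mean G% - G%: mean growth across the NCI-60 panel minus this line's growth with positive meaning more sensitive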
Experimental: as §1, §2

[11] = test system: OVCAR-5; assay: NCI-60 SRB assay, OVCAR-5 (Ovarian Cancer); details: 10 µM, 48 h; for G%: growth vs untreated control;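 for Mean G% - G%: mean growth across the NCI-60 panel minus this line's growth with positive meaning more sensitive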
Experimental: as §1, §2

[12] = test system: SK-OV-3; assay: NCI-60 SRB assay, SK-OV-3 (Ovarian Cancer); details: 10 µM, 48 h; for G%: growth vs untreated control
Experimental: as §1, §2

[13] = test system: 786-0; assay: NCI-60 SRB assay, 786-0 (Renal Cancer); details: 10 µM, 48 h; for G%: growth vs untreated control
Experimental: as §1, §2

[14] = test system: CAKI-1; assay: NCI-60 SRB assay, CAKI-1 (Renal Cancer); details: 10 µM, 48 h; for G%: growth vs untreated control
Experimental: as §1, §2

[15] = test system: RXF 393; assay: NCI-60 SRB assay, RXF 393 (Renal Cancer); details: 10 µM, 48 h
Experimental: as §1, §2

[16] = test system: TK-10; assay: NCI-60 SRB assay, TK-10 (Renal Cancer); details: 10 µM, 48 h; for G%: growth vs untreated control
Experimental: as §1, §2

[17] = test system: UO-31; assay: NCI-60 SRB assay, UO-31 (Renal Cancer); details: 10 µM, 48 h; for G%: growth vs untreated control
Experimental: as §1, §2

[18] = test system: MCF7; assay: NCI-60 SRB assay, MCF7 (Breast Cancer); details: 10 µM, 48 h; for G%: growth vs untreated control
Experimental: as §1, §2

[19] = test system: MDA-MB-231; assay: NCI-60 SRB assay, MDA-MB-231 (Breast Cancer); details: 10 µM, 48 h; for G%: growth vs untreated control
Experimental: as §1, §2

[20] = test system: HS 578T; assay: NCI-60 SRB assay, HS 578T (Breast Cancer); details: 10 µM, 48 h; for G%: growth vs untreated control
Experimental: as §1, §2

[21] = test system: BT-549; assay: NCI-60 SRB assay, BT-549 (Breast Cancer); details: 10 µM, 48 h; for G%: growth vs untreated control
Experimental: as §1, §2

[22] = test system: T-47D; assay: NCI-60 SRB assay, T-47D (Breast Cancer); details: 10 µM, 48 h; for G%: growth vs untreated control
Experimental: as §1, §2

[23] = test system: MOLT-4; assay: NCI-60 SRB assay, MOLT-4 (Leukemia); details: 10 µM, 48 h
Experimental: as §1, §2

SMILES: C[C@@H]1NC(c2ccc(N=[N+]=[N-])cc2)=Nc2nc3ccccn3c2C1=O [Compound 5, (4S)-4-methyl-2-(4-azidophenyl)-3,4-dihydro-5H-pyrido[1’,2’:1,2]imidazo[4,5-d][1,3]diazepin-5-one]
- IC50 [1]: 7.13 ± 0.51 µM
- Mean G% - G% [2]: -12,13%
- G% ([2]; growth vs untreated control): 97,39%
- Mean G% - G% [3]: 3,82%
- G% [3]: 81,44%
- Mean G% - G% [4]: -2,45%
- G% [4]: 87,71%
- Mean G% - G% [5]: 16,87%
- G% [5]: 68,39%
- Mean G% - G% [6]: 3,28%
- G% [6]: 81,98%
- inhibition at 10 µM ([7]; Homo sapiens, MDA-MB-435, NCI-60 SRB, read-out: growth inhibition percentage): 87%
- Mean G% - G% [7]: 72,64%
- G% [7]: 12,62%
- Mean G% - G% [8]: 14,40%
- G% [8]: 70,86%
- Mean G% - G% [9]: -15,59%
- G% [9]: 100,85%
- Mean G% - G% [10]: -3,32%
- G% [10]: 88,58%
- Mean G% - G% [11]: -22,84%
- G% [11]: 108,10%
- Mean G% - G% [12]: -1,19%
- G% [12]: 86,45%
- Mean G% - G% [13]: -9,88%
- G% [13]: 95,14%
- Mean G% - G% [14]: 10,49%
- G% [14]: 74,77%
- Mean G% - G% [15]: -1,17%
- G% ([15]; growth vs untreated control): 86,43%
- Mean G% - G% [16]: -48,01%
- G% [16]: 133,27%
- Mean G% - G% [17]: 15,67%
- G% [17]: 69,59%
- Mean G% - G% [18]: 26,64%
- G% [18]: 58,62%
- Mean G% - G% [19]: 4,91%
- G% [19]: 80,35%
- Mean G% - G% [20]: -10,95%
- G% [20]: 96,21%
- Mean G% - G% [21]: -10,11%
- G% [21]: 95,37%
- Mean G% - G% [22]: 8,29%
- G% [22]: 76,97%

SMILES: C[C@@H]1NC(c2csc3ccccc23)=Nc2nc3ccccn3c2C1=O [Compound 8, (4S)-4-methyl-2-benzothiophen-3-yl-3,4-dihydro-5H-pyrido[1’,2’:1,2]imidazo[4,5-d][1,3]diazepin-5-one]
- IC50 [1]: 7.97 ± 0.65 µM
- Mean G% - G% [23]: -8,59%
- G% ([23]; growth vs untreated control): 83,46%
- Mean G% - G% [3]: -23,19%
- G% [3]: 98,06%
- Mean G% - G% [4]: 2,74%
- G% [4]: 72,13%
- Mean G% - G% [5]: -1,17%
- G% [5]: 76,04%
- Mean G% - G% [6]: -16,75%
- G% [6]: 91,62%
- Mean G% - G% [7]: -0,17%
- G% [7]: 75,04%
- Mean G% - G% [8]: 12,92%
- G% [8]: 61,95%
- Mean G% - G% [9]: -23,68%
- G% [9]: 98,55%
- Mean G% - G% [10]: 0,79%
- G% [10]: 74,08%
- Mean G% - G% [11]: -32,82%
- G% [11]: 107,69%
- Mean G% - G% [12]: 7,58%
- G% [12]: 67,29%
- Mean G% - G% [13]: -14,72%
- G% [13]: 89,59%
- Mean G% - G% [14]: 39,76%
- G% [14]: 35,11%
- Mean G% - G% [16]: -36,86%
- G% [16]: 111,73%
- Mean G% - G% [17]: 22,87%
- G% [17]: 52,00%
- Mean G% - G% [18]: 24,29%
- G% [18]: 50,58%
- Mean G% - G% [19]: 6,94%
- G% [19]: 67,93%
- Mean G% - G% [20]: 15,40%
- G% [20]: 59,47%
- Mean G% - G% [21]: -11,85%
- G% [21]: 86,72%
- Mean G% - G% [22]: 28,96%
- G% [22]: 45,91%
